Measurements from patent US11161856B2 (H. Lundbeck A/S, priority 2017, dated 2021).

Experiments:
MGLL = biological target: T1, MGLL (Mus musculus, UniProt O35678); test: In vitro competitive activity-based protein profiling, mouse brain proteome (MGLL); format: biochemical; settings: concentration not given (μM)
T1 construct: Brain; from tissue; host or cells: mouse brain proteome
T1 sequence (O35678 1-303): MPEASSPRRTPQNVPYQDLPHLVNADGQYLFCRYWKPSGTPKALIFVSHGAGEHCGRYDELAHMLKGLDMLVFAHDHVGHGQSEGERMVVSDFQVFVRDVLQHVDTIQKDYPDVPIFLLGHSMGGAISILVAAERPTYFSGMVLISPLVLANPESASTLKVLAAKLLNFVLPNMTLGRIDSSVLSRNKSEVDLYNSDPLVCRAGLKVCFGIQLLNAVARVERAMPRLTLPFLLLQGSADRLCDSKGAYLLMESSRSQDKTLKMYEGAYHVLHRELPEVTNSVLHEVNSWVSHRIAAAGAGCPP

ABHD6 = biological target: T2, ABHD6 (Mus musculus, UniProt Q8R2Y0); test: In vitro competitive activity-based protein profiling, mouse brain proteome (ABHD6); format: biochemical; settings: mouse brain proteome; concentration not given (μM)
T2 construct: Brain; from tissue; host or cells: mouse brain proteome
T2 sequence (Q8R2Y0 1-336): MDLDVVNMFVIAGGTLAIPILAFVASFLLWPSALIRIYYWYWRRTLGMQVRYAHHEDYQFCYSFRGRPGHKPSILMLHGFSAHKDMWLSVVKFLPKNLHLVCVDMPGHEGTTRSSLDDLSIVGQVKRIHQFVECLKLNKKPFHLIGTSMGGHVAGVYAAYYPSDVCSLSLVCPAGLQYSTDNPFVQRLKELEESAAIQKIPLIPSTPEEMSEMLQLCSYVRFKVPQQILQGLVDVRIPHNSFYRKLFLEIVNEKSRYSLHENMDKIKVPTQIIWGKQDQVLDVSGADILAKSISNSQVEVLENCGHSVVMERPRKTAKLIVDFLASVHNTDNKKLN
Experimental: [The source words this procedure for another target and reports this target under the same test.] In Vitro Competitive Activity-Based Protein Profiling.
Proteomes (human prefrontal cortex or cell membrane fractions) (50 μL, 1.0 mg/mL total protein concentration) were preincubated with varying concentrations of inhibitors at 37° C. After 30 min, FP-Rh or HT-01 (1.0 μL, 50 μM in DMSO) was added and the mixture was incubated for another 30 min at room temperature. Reactions were quenched with SDS loading buffer (15 μL-4×) and run on SDS-PAGE.

| % Inh MGLL Brain (Mouse, μM) (MGLL) | % Inh ABHD6 Brain (Mouse, μM) (ABHD6) | SMILES |
| --- | --- | --- |
| ### (### is ≥75%) | ### (### is ≥75%) | O=C(OC(C(F)(F)F)C(F)(F)F)N1CC2(CCN(Cc3ccc(N4CCOCC4)cc3Cl)CC2)C1 [Example 70, 1,1,1,3,3,3-Hexafluoropropan-2-yl 7-(2-chloro-4-morpholinobenzyl)-2,7-diazaspiro[3.5]nonane-2-carboxylate] |
| ### (### is ≥75%) | ### (### is ≥75%) | O=C(OC(C(F)(F)F)C(F)(F)F)N1CCC2(CC1)CN(Cc1c(N3CCN(C4CC4)CC3)cccc1C(F)(F)F)C2 [Example 60, 1,1,1,3,3,3-Hexafluoropropan-2-yl 2-(2-(4-cyclopropylpiperazin-1-yl)-6-(trifluoromethyl)benzyl)-2,7-diazaspiro[3.5]nonane-7-carboxylate] |
| ### (### is ≥75%) | ## (## is between 25 and 75%) | CS(=O)(=O)N1CC2CN(c3cc(C(F)(F)F)ccc3CN3CCN(C(=O)OC(C(F)(F)F)C(F)(F)F)CC3)CC2C1 (stereo not drawn) [Example 201, 1,1,1,3,3,3-Hexafluoropropan-2-yl 4-(2-(5-(methylsulfonyl)hexahydropyrrolo[3,4-c]pyrrol-2(lH)-yl)-4-(tnfluoromethyl)benzyl)pipera zinc-1-carboxylate] |
| ### (### is ≥75%) | ### (### is ≥75%) | O=C(OC(C(F)(F)F)C(F)(F)F)N1CCC2(CC1)CN(Cc1ccc(N3CCOCC3)cc1)C2 [Example 81, 1,1,1,3,3,3-Hexafluoropropan-2-yl 2-(4-morpholinobenzyl)-2,7-diazaspiro[3.5]nonane-7-carboxylate] |
| ### (### is ≥75%) | ### (### is ≥75%) | CC(=O)N1CC2(CCN(c3cc(Cl)cc(CN4CCCC45CN(C(=O)OC(C(F)(F)F)C(F)(F)F)C5)c3)CC2)C1 [Example 238, 1,1,1,3,3,3-Hexafluoropropan-2-yl 5-(3-(2-acetyl-2,7-diazaspiro[3.5]nonan-7-yl)-5-chlorobenzyl)-2,5- .diazaspiro[3.4]octane-2-carboxylate] |
| ### (### is ≥75%) | # (# is ≤25%) | CCN1CC2(CCN(c3cc(Cl)ccc3CN3CCN(C(=O)OC(C(F)(F)F)C(F)(F)F)CC3)C2)C1 [Example 173, 1,1,1,3,3,3-Hexafluoropropan-2-yl 4-(4-chloro-2-(2-ethyl-2,6-diazaspiro[3.4]octan-6-yl)benzyl)piperazine-1-carboxylate] |
| ### (### is ≥75%) | # (# is ≤25%) | CN1CCCC12CCN(c1cc(C(F)(F)F)ccc1CN1CCN(C(=O)OC(C(F)(F)F)C(F)(F)F)CC1)CC2 [Example 215, 1,1,1,3,3,3-Hexafluoropropan-2-yl 4-(2-(1-methyl-1,8-diazaspiro[4.5]decan-8-yl)-4-(trifluoromethyl)benzyl) piperazine-1-carboxylate] |
| ### (### is ≥75%) | ### (### is ≥75%) | O=C(OC(C(F)(F)F)C(F)(F)F)N1CCC2(CC1)CN(Cc1ccc(Cl)cc1N1CCCC1)C2 [Example 34] |
| ### (### is ≥75%) | # (# is ≤25%) | CS(=O)(=O)N1CCC2(CCN(c3cc(C(F)(F)F)ccc3CN3CCN(C(=O)OC(C(F)(F)F)C(F)(F)F)CC3)CC2)C1 [Example 185, 1,1,1,3,3,3-Hexafluoropropan-2-yl 4-(2-(2-(methylsulfonyl)-2,8-diazaspiro[4.5]decan-8-yl)-4-(trifluoromethyl)benzyl) piperazine-1-carboxylate] |
| ### (### is ≥75%) | ### (### is ≥75%) | CN(Cc1ccc(C(F)(F)F)cc1N1CCOCC1)C1(C)CCN(C(=O)OC(C(F)(F)F)C(F)(F)F)CC1 [Example 63, 1,1,1,3,3,3-Hexafluoropropan-2-yl 4-methyl-4-(methyl(2-morpholino-4-(trifluoromethyl)benzyl)amino) piperidine-1-carboxylate] |
| ### (### is ≥75%) | # (# is ≤25%) | CS(=O)(=O)N1CCC2(CCN(c3cc(Cl)ccc3CN3CCN(C(=O)OC(C(F)(F)F)C(F)(F)F)CC3)CC2)C1 [Example 174, 1,1,1,3,3,3-Hexafluoropropan-2-yl 4-(4-chloro-2-(2-(methylsulfonyl)-2,8-diazaspiro[4.5]decan-8-yl)benzyl)piperazine-1-carboxylate] |
| ## (## is between 25 and 75%) | ### (### is ≥75%) | Cc1cc(-c2ccccc2)ccc1CN1CCC2(CC1)CN(C(=O)OC(C(F)(F)F)C(F)(F)F)C2 [Example 19, 1,1,1,3,3,3-Hexafluoropropan-2-yl 7-((3-methyl-[1,1′-biphenyl]-4-yl)methyl)-2,7-diazaspiro[3.5]nonane-2-carboxylate] |
| ### (### is ≥75%) | # (# is ≤25%) | CCN1CCC2(CCN(c3cc(Cl)ccc3CN3CCN(C(=O)OC(C(F)(F)F)C(F)(F)F)CC3)CC2)C1 [Example 170, 1,1,1,3,3,3-Hexafluoropropan-2-yl 4-(4-chloro-2-(2-ethyl-2,8-diazaspiro[4.5]decan-8-yl)benzyl)piperazine-1-carboxylate] |
| ### (### is ≥75%) | # (# is ≤25%) | CS(=O)(=O)N1CCC2(CCN(c3cc(C(F)(F)F)ccc3CN3CCN(C(=O)OC(C(F)(F)F)C(F)(F)F)CC3)C2)CC1 [Example 196, 1,1,1,3,3,3-Hexafluoropropan-2-yl 4-(2-(8-(methylsulfonyl)-2,8-diazaspiro[4.5]decan-2-yl)-4-(trifluoromcthyl)benzyl)pipera zinc-1-carboxylate] |
| # (# is ≤25%) | ### (### is ≥75%) | O=C(O)C1CCN(c2ccc(CN3CC4(CCN(C(=O)OC(C(F)(F)F)C(F)(F)F)CC4)C3)cc2)CC1 [Example 74, 1-(4-((7-(((1,1,1,3,3,3-Hexafluoropropan-2-yl)oxy)carbonyl)-2,7-diazaspiro[3.5]nonan-2-yl)methyl)phenyl)piperidine-4-carboxylic acid] |
| ### (### is ≥75%) | ### (### is ≥75%) | O=C(OC(C(F)(F)F)C(F)(F)F)N1CCC2(CC1)CN(Cc1c(Cl)cccc1N1CC3COCC3C1)C2 (stereo not drawn) [Example 57, 1,1,1,3,3,3-Hexafluoropropan-2-yl 2-(2-chloro-6-(tetrahydro-1H-furo[3,4-c]pyrrol-5(3H)-yl)benzyl)-2,7-diazaspiro[3.5]nonane-7-carboxylate] |
| ### (### is ≥75%) | # (# is ≤25%) | O=C(O)C1CCN(c2cc(Cl)ccc2CN2CCC3(CC2)CCN(C(=O)OC(C(F)(F)F)C(F)(F)F)C3)CC1 [Example 194, l-(5-Chloro-2-((2-(((1.1,1,3,3,3-hexafluoropropan-2-yl)oxy)carbonyl)-2,8-diazaspiro[4.5]decan-8-yl)methyl)phenyI)piperidine-4-carboxylic acid] |
| ### (### is ≥75%) | ### (### is ≥75%) | O=C(OC(C(F)(F)F)C(F)(F)F)N1CC2(CCN(Cc3ccc(Cl)cc3N3CCOCC3)CC2)C1 [Example 37, 1,1,1,3,3,3-Hexafluoropropan-2-yl 7-(4-chloro-2-morpholinobenzyl)-2,7-diazaspiro[3.5]nonane-2-carboxylate] |
